The results in this text go back to patent US8481011B2, “Use of polyunsaturated compounds as whitening agents” (Pierre Fabre Dermo-Cosmetique, priority 2005, dated 2013).

Common to all, as to type: cell-based
Data set [1] relates to BDV II murine keratinocytes. Description: MTT cellular respiration toxicity test on BDV II keratinocytes. Particulars: for % MTT / IC50: BDV II murine keratinocytes; for % MTT: concentration 10 μM, cell viability; for IC50: toxicity; for toxicity ranking on BDV II keratinocytes: ranking in words, viability according to concentration. From the text:
(§1) The objective of these tests is to measure the toxicity of the new retinoids on keratinocyte and melanocyte cells.
(§2) The method used is a cellular respiration test with the MTT (thiazolile blue) in order to assess cells that are still living.
(§3) The MTT test gives a cellular respiration index; this involves a substrate of dehydrogenases in general and dehydrogenase succinate in particular. The MTT, yellow, partially soluble in water, is reduced in a violet compound, insoluble in water, but soluble in organic solvents (DMSO).
(§4) Prepare a 12 mM solution (5 mg/ml) of MTT in water or the culture medium.
(§5) Dilute this solution to 1:10 in the supernatant fluid or suspension of cells (final MTT 1.2 mM or 0.5 mg/ml), then leave to incubate for 3 hours at 37° C.
(§6) Aspirate the supernatant fluid, the dissolve the violet crystals of formazan MTT in DMSO.
(§7) Read the optical density of the solution at 550 nm (dilute beforehand as required).
(§8) Calibration line: MTT formazan 0-200 μM.

For data set [2], the system named is B16 murine melanocytes. Description: MTT cellular respiration toxicity test on B16 melanocytes. Particulars: for IC50: toxicity; for % MTT: concentration 10 μM, cell viability.
From the text: as §1, §2, §3, §4, §5, §6, §7, §8

Data set [3] concerns B16 murine melanocytes. Description: Study of depigmenting activity (melanin dosage). The conditions noted are these: at infratoxic doses, in words. As to the method: The objective of these tests is to measure the depigmenting activity of new retinoids according to their concentration.
The melanin is dosed according to the method described by S. Besson et al., Dermatology Archives. 133:331-336 (1997)′.
Digestion plug: 100 mM NaCl, to mm-Tri-HCl, 1% SDS, 50 mM EDTA, pH 8.
For 50 ml: 292 mg NaCl, 299 mg tris acid, 73 mg tris base, 931 mg EDTA disodium dehydrate, 500 mg SDS, adjust pH (≈5.5) to 8.0 with concentrated NaOH.
K proteinase 10 mg/ml in the digestion plug.
Prepare tubes containing synthetic melanin at concentrations of between 2.5 and 80 μg/ml in the DMSO.
For the cells, determine the protein concentration beforehand, centrifuge in 2 ml tubes and remove the supernatant.
In 2 ml tubes containing a cell remainder, add 300 μl of digestion buffer and 3 μl of K proteinase.
Incubate for 2 hours at 50° C., then a night at 37° C.
Top up the volume to 1 ml with water, then sound test.
Centrifuge for 10 minutes at 20,000 g, drain off all the supernatant (clear) then dissolve the dry melanin remainder in 500-1000 μl of DMSO.
Measure the absorbency at 375 nm and check the spectrum.

Molecules are shown by their SMILES.

In general, IC50 refers to the point on the concentration scale where inhibition reaches its midpoint. High values mean lower potency, low ones higher potency. On to `CC1=C(/C=C/C(C)=C/C=C/C(C)=C/C(=O)O)C(C)(C)CCC1` [RA, Retinoic acid, reference compound], for which the “% MTT” value in data set [1] was 40%; with B16 murine melanocytes [2], 50%. Further, the IC50 in data set [1] (Mus musculus, Keratinocyte) amounted to 3 µM; with B16 murine melanocytes [2] (Mus musculus, Melanocyte) it was 10 µM.
For the compound `CC1=C(/C=C/C(C)=C/C=C/C(C)=C/C(=O)OC(C)(C)C)C(C)(C)CCC1=O` [Example 3, tert-butylic ester of (2E,4E,6E,8E)-3,7-dimethyl-9-(2,6,6-trimethyl-3-oxo-cyclohex-1-enyl)-nona-2,4,6,8-tetraenoic acid], the “% MTT” value in data set [1] is 85%; in the data set on B16 murine melanocytes [2] it was 80%. Besides, the concentration for half-maximal inhibition (IC50) in data set [1] (Mus musculus, Keratinocyte) was determined as 60 µM; in the data set on B16 murine melanocytes [2] (Mus musculus, Melanocyte) it was 30 µM. The “depigmenting activity (melanin)” value in the data set with B16 murine melanocytes [3] is “net depigmenting efficacy promotes”.
Turning to `COC(=O)/C=C(C)/C=C/C=C(C)/C=C/C1=C(C)C(=O)CCC1(C)C` [Example 5, Methylic ester of (2E,4E,6E,8E)-9-[3-(3-oxo)-2,6,6-trimethyl-cyclohex-1-enyl]-3,7-dimethyl-nona-2,4,6,8-tetraenoic acid], in data set [1], the “% MTT” value came to 59%; the IC50 was 15 µM; the “toxicity ranking on BDV II keratinocytes” value was “then examples 5 and 6”. The “depigmenting activity (melanin)” value in the data set on B16 murine melanocytes [3] is recorded as “net depigmenting efficacy promotes”. Besides, in the data set with B16 murine melanocytes [2], the “% MTT” value is listed as 86% and the IC50 was determined as 60 µM.
For the compound `CC1=C(/C=C/C(C)=C/C=C/C(C)=C/C(=O)OC(C)(C)C)C(C)(C)CCC1O` (centres unmarked) [Example 4, tert-butylic ester of (2E,4E,6E,8E)-9-(3-hydroxy-2,6,6-trimethyl-cyclohex-1-enyl)-3,7-dimethyl-nona-2,4,6,8-tetraenoic acid], the “% MTT” value in data set [1] was 84%; with B16 murine melanocytes [2] it was 62%. The IC50 turned out to be 70 µM in data set [1] (Mus musculus, Keratinocyte) and 20 µM in the data set on B16 murine melanocytes [2] (Mus musculus, Melanocyte).
As for `CC1=C(/C=C/C(C)=C/C=C/C(C)=C/C(=O)O)C(C)(C)CCC1O` (centres unmarked) [Example 7, (2E,4E,6E,8E)-9-[3-(3-hydroxy)-2,6,6-trimethyl-cyclohex-1-enyl]-3,7-dimethyl-nona-2,4,6,8-tetraenoic acid], the “% MTT” value turned out to be 86% in data set [1] and 69% with B16 murine melanocytes [2]. In addition, the IC50 in data set [1] (Mus musculus, Keratinocyte) was above 100 µM; in the data set with B16 murine melanocytes [2] (Mus musculus, Melanocyte), 35 µM. Moreover, the “toxicity ranking on BDV II keratinocytes” value in data set [1] is on record as “least toxic”.
Regarding `CC(=O)OC1CCC(C)(C)C(/C=C/C(C)=C/C=C/C(C)=C/C(=O)OC(C)(C)C)=C1C` (centres unmarked) [Example 8, tert-butylic ester of (2E,4E,6E,8E)-9-[3-(3-acetoxy)-2,6,6-trimethyl-cyclohex-1-enyl]-3,7-dimethyl-nona-2,4,6,8-tetraenoic acid], the “% MTT” value (in data set [1]; in the data set with B16 murine melanocytes [2]) was 82% in each case. The IC50 was above 100 µM in data set [1] (Mus musculus, Keratinocyte) and 60 µM with B16 murine melanocytes [2] (Mus musculus, Melanocyte). In addition, the “toxicity ranking on BDV II keratinocytes” value in data set [1] is recorded as “least toxic”. In addition, the “depigmenting activity (melanin)” value with B16 murine melanocytes [3] is listed as “net depigmenting efficacy promotes”.
With `CC(=O)OC/C=C(C)/C=C/C=C(C)/C=C/C1=C(C)C(=O)CCC1(C)C` [Example 11, (2E,4E,6E,8E)-9-[3-(3-oxo)-2,6,6-trimethyl-cyclohex-1-enyl]-3,7-dimethyl-nona-2,4,6,8-tetraenyl acetate], the “% MTT” value in data set [1] turned out to be 60%; with B16 murine melanocytes [2], 86%. Moreover, the IC50 turned out to be 30 µM in data set [1] (Mus musculus, Keratinocyte) and 70 µM with B16 murine melanocytes [2] (Mus musculus, Melanocyte).
On to `CC1=C(/C=C/C(C)=C/C=C/C(C)=C/C(=O)O)C(C)(C)CCC1=O` [Example 405, 4-oxoretinoic acid], for which, in data set [1], the “% MTT” value is listed as 78% and the 50% inhibitory concentration (IC50) is above 100 µM. Moreover, in the data set with B16 murine melanocytes [2], the “% MTT” value is recorded as 76% and the IC50 is above 100 µM.
